Source: patent US20230123334A1, “AMINO LIPID COMPOUND, PREPARATION METHOD THEREFOR, AND APPLICATION THEREOF” (SHENZHEN SHENXIN BIOTECHNOLOGY CO., LTD., priority 2020, published 2023)

Columns and labels:
Type in all cases: cell-based
[1] = tested on: Hela cells; experiment: Transfection of Hela cell line, DNA vectors; details: 75 ng plasmid DNA, GFP cells / total cells
Outline: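 Amino lipid/DOPE liposomes in sodium acetate pH 5.6 were complexed with 75 ng psin-EGFP-IRES-Puro plasmid for 30 min at room temperature, then mixed with 3-5×10^4 Hela cells in DMEM/10% FBS at 37° C. Hoechst stain after 20-24 h, imaging after a further 20-24 h. Efficiency = GFP-positive cells / total nuclei.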

[2] = tested on: Hela cells; experiment: Transfection of Hela cell line, mRNA vectors; details: 50 ng EGFP mRNA per well
Outline: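 Transfection efficiency was scored as GFP-fluorescent cells over Hoechst-stained total nuclei, with Lipofectamine2000 as reference reagent. Each well of HeLa cells, grown in DMEM plus 10% FBS, received 50 ng EGFP mRNA.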

[3] = tested on: embryonic stem cells (hESC2); experiment: Screening as mRNA vectors in embryonic stem cells; details: 50 ng EGFP mRNA per well
Protocol: (§1) Cell line: embryonic stem cells (hESC2, cultured according to reported methods: Stem Cells, 2005, 23, 544-549)
(§2) Medium: mTeSR1 (STEMCELL)
Mode of screening: cell transfection on 96-well plate
(§3) Detection (readout): percentage of the number of GFP fluorescent cells relative to the total number of cells. Lipofectamine Stem was used as the positive control.
Method: the experimental method was basically the same with Example 10, and the mass of EGFP mRNA for transfection was 50 ng per well.

[4] = tested on: MCF7 cells; experiment: Transfection of MCF7 cell line, DNA vectors; set-up: concentration or dose not given beside the values; details: plasmid DNA, GFP cells / total cells
Outline: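 Read-out: GFP-positive cells as % of all Hoechst-stained nuclei after 96-well transfection of MCF7 cells grown in serum-supplemented DMEM. Positive control was Lipofectamine2000, used per manufacturer's protocol.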

[5] = tested on: cardiomyocytes; experiment: Screening as mRNA vectors in cardiomyocytes; details: 50 ng EGFP mRNA per well
Protocol: Cell line: cardiomyocytes (obtained from induced differentiation of hESC according to reported methods: J Mol. Cell. Cardiol. 2011, 51, 288-298)
(§4) Medium: DMEM supplemented with 10% fetal bovine serum (Invitrogen)
(§5) Mode of screening: cell transfection on 96-well plates
(§6) Detection (readout): percentage of the number of GFP fluorescent cells relative to the total number of cells (the total number of cells was determined using nucleus dye Hoechst). Lipofectamine Stem (Invitrogen) was used as the positive control, according to the manufacturer's instructions.
Method: the experimental method was basically the same with Example 4, and the mass of EGFP mRNA for transfection was 50 ng per well.

[6] = tested on: MCF7 cells; experiment: Transfection of MCF7 cell line, mRNA vectors; details: 50 ng EGFP mRNA per well
Outline: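 Efficiency was scored as the fraction of GFP-fluorescent cells over all Hoechst-counted cells after delivery of 50 ng EGFP mRNA per well. Cells were MCF7 grown in serum-supplemented DMEM, and Lipofectamine2000 served as reference.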

[7] = tested on: cardiomyocytes; experiment: Screening as DNA vectors in cardiomyocytes; set-up: concentration or dose not given beside the values; details: method as Example 4
Protocol: Cell line: cardiomyocytes (obtained from induced differentiation of hESC according to reported methods: J. Mol. Cell. Cardiol. 2011, 51, 288-298)
as §4, §5, §6
Method: the experimental method was basically the same with Example 4.

[8] = tested on: embryonic stem cells (hESC2); experiment: Screening as DNA vectors in embryonic stem cells, flow cytometry; details: 75 ng plasmid DNA, 48 hours after transfection, flow cytometer
Description: as §1, §2, §5, §3
Method: an 8-channel pipette was used for sample addition. The contents shown were for a single well of a 96-well flat plate.
1. Stem cells were cultured to 3-5×10^4 cells per well in a 96-well plate treated with matrigel.
2. The compound (0.01 mmol) prepared in Example 1 was dissolved in 1 mL of anhydrous ethanol. After ultrasonically dissolved, 10 μL of the resultant amino lipid solution in ethanol was taken and mixed with 5 μL of DOPE solution in ethanol ([…]). The obtained mixture was then added with 35 μL of 0.2 M sodium acetate buffer (pH 5.6), and vortexed at a constant rotating speed for 30 s. Then, 4 μL was taken from the obtained product and added to 46 μL of 0.02 M sodium acetate buffer (pH 5.6), and vortexed at a constant rotating speed for 30 s to form a liposome solution. 5 μL of this liposome solution was mixed with 75 ng of plasmid DNA (pSin-EGFP-IRES-Puro) dissolved in 5 μL of 0.02 M sodium acetate buffer, and allowed to stay at room temperature for 30 min to form a lipid/DNA transfection complex.
3. 10 μL of the lipid/DNA transfection complex was incubated at room temperature for 30 min, followed by addition of 90 μL mTeSR1 medium was added and mixing with a pipette. 100 μL of the mixture was added to separate wells of a 96-well culture plate and placed in an incubator containing 5% CO2 at 37° C.
4. 48 hours after transfection, the cells were digested with 0.05% Trypsin-EDTA. The cells were resuspended in a PBS buffer and filtered. The cell suspension was placed in a flow cytometer and the number of GFP-expressing cells in no less than 2000 cells was measured so as to obtain the absolute efficiency of cell transfection. The relative efficiency of cell transfection was obtained by comparing the cell transfection efficiency with the positive control Lipofectamine Stem.

| Compound | Absolute DNA transfection efficiency in Hela cells [1] | Absolute mRNA transfection efficiency in Hela cells [2] | Absolute mRNA transfection efficiency in embryonic stem cells [3] | Absolute DNA transfection efficiency in MCF7 cells [4] | Absolute mRNA transfection efficiency in cardiomyocytes [5] | Absolute mRNA transfection efficiency in MCF7 cells [6] | Absolute DNA transfection efficiency in cardiomyocytes [7] | Absolute DNA transfection efficiency in embryonic stem cells [8] |
| --- | --- | --- | --- | --- | --- | --- | --- | --- |
| CCCCCCCCCCCNc1nc(NCCN2CCCC2)nc(SCCCCCCCCC)n1 [Compound S9N11D3] | 21.8% | 21.8% | 1.7% | 26.6% | 16.7% | 7.9% | 0.4% | 0.4% |
| CCCCCCCCCCCNc1nc(NCCN2CCN(C)CC2)nc(SCCCCCCCCC)n1 [Compound S9N11D5] | 22.5% | 22.5% | 3.3% | 17.8% | 18.0% | 18.0% | 2.5% | 3.0% |
| CCCCCCCCCCCNc1nc(NCCCN(C)C)nc(SCCCCCCCCC)n1 [Compound S9N11D6] | 27.7% | 27.7% | 5.8% | 32.6% | 5.0% | 37.2% | 1.9% | 1.4% |
| CCCCCCCCCCCNc1nc(NCCCN2CCOCC2)nc(SCCCCCCCCC)n1 [Compound S9N11D8] | 13.9% | 13.9% | 5.9% | 13.1% | 4.4% | 2.7% | 0.8% | 0.6% |
| CCCCCCCCCCCNc1nc(NCCCN2CCN(C)CC2)nc(SCCCCCCCCC)n1 [Compound S9N11D9] | 24.3% | 24.6% | 2.9% | 27.3% | 45.4% | 11.8% | 1.1% | 6.6% |
| CCCCCCCCCCCNc1nc(NCC2CCN(C)CC2)nc(SCCCCCCCCC)n1 [Compound S9N11D10] | 21.2% | 21.3% | 2.6% | 36.6% | 45.3% | 20.2% | 2.7% | 2.2% |
| CCCCCCCCCCCCNc1nc(NCCN2CCCC2)nc(SCCCCCCCCC)n1 [Compound S9N12D3] | 23.7% | 23.7% | 4.6% | 27.5% | 29.2% | 15.9% | 1.1% | 2.3% |
| CCCCCCCCCCCCNc1nc(NCCN2CCN(C)CC2)nc(SCCCCCCCCC)n1 [Compound S9N12D5] | 24.1% | 24.1% | 10.5% | 13.7% | 25.5% | 16.6% | 4.0% | 2.5% |
| CCCCCCCCCCCCNc1nc(NCCCN(C)C)nc(SCCCCCCCCC)n1 [Compound S9N12D6] | 35.5% | 35.5% | 6.1% | 21.8% | 5.3% | 22.4% | 1.7% | 1.9% |
| CCCCCCCCCCCCNc1nc(NCCCN2CCOCC2)nc(SCCCCCCCCC)n1 [Compound S9N12D8] | 6.8% | 6.8% | 11.1% | 6.2% | 2.1% | 0.7% | 1.5% | 1.1% |
| CCCCCCCCCCCCNc1nc(NCCCN2CCN(C)CC2)nc(SCCCCCCCCC)n1 [Compound S9N12D9] | 14.4% | 14.4% | 7.6% | 20.0% | 32.0% | 16.4% | 0.0% | 2.7% |
| CCCCCCCCCCCCNc1nc(NCC2CCN(C)CC2)nc(SCCCCCCCCC)n1 [Compound S9N12D10] | 12.9% | 12.9% | 14.0% | 31.7% | 40.6% | 11.2% | 3.6% | 5.3% |
| CCCCCCCCCCCSc1nc(NCCCCCCCC)nc(NCCN2CCCC2)n1 [Compound S11N8D3] | 12.9% | 12.9% | 12.8% | 17.7% | 24.5% | 8.6% | 0.2% | 4.3% |
| CCCCCCCCCCCSc1nc(NCCCCCCCC)nc(NCCN2CCN(C)CC2)n1 [Compound S11N8D5] | 9.6% | 9.6% | 6.9% | 20.1% | 32.2% | 21.2% | 9.1% | 4.0% |
